PMC3608532, “Characterization of a Single-Chain Variable Fragment Recognizing a Linear Epitope of Aβ: A Biotechnical Tool for Studies on Alzheimer’s Disease?” (PLoS ONE, 2013)

Tests used:
Aβ(3-8) = assay: SPR binding kinetics to immobilized Aβ(3-8); conditions: SPR Biacore X, CM5 chip, PBS, 25°C, global fit; scFv-IC16 Langmuir 1:1 model, IC16 bivalent model; ± standard error; SEM
Protocol: (§1) Binding kinetics were determined by SPR using a Biacore™ X (GE Healthcare, UK). Synthetic Aβ peptides were dissolved in 10 mM NaAc, pH 4.0. The CM5 sensor chip surface (GE Healthcare, UK) was activated using N-ethyl-N′-3 […] carbodiimide (EDC) and N-hydroxysuccinimide (NHS) chemistry followed by 2-(2-pyridinyldithio)ethaneamine hydrochloride (PDEA), in order to introduce a reactive thiol group. Aβ was coupled via the C-terminal cysteine to the chip at a flow rate of 5 µl/min, and the remaining active groups were blocked by injecting cysteine. The immobilization procedure was performed according to manufacturer’s recommendation. All kinetic analyses were performed at a flow rate of 20 µl/min in PBS. Varying concentrations of scFv-IC16 (10 to 5000 nM) and IC16 (10 to 1000 nM) were injected. […] When required, the surface was regenerated by injecting 20 µl 50 mM glycine, pH 11.0. The data evaluation was performed using Biaevaluation Software 4.1.1. ScFv-IC16 data were fitted according to the Langmuir 1∶1 binding model, whereas IC16 data were fitted according to the bivalent binding model. Standard errors of equilibrium dissociation constants (KD) were calculated using standard errors of the corresponding association and dissociation rate constants.

Aβ(2-8) = assay: SPR binding kinetics to immobilized Aβ(2-8); conditions: SPR Biacore X, CM5 chip, PBS, 25°C, global fit; scFv-IC16 Langmuir 1:1 model, IC16 bivalent model; ± standard error; SEM
Protocol: as §1

Aβ(1-8) = assay: SPR binding kinetics to immobilized Aβ(1-8); conditions: SPR Biacore X, PBS, 25°C, global fit, scFv-IC16 Langmuir 1:1 model, IC16 bivalent model, ± standard error, SEM
Protocol: as §1

Aβ(8-15) = assay: SPR binding kinetics to immobilized Aβ(8-15)
Protocol: as §1

Aβ(pE3-8) = assay: SPR binding kinetics to immobilized Aβ(pE3-8); conditions: SPR Biacore X, CM5 chip, PBS, 25°C, global fit, IC16 bivalent model
Protocol: as §1

For “IC16: monoclonal IgG2a antibody recognizing Aβ(1-8), from hybridoma of mouse immunized with KLH Aβ(1-16)”, the k off (Aβ(3-8)) was 3.43±0.007×10^−3 s^-1, the k on (Aβ(3-8)) was 4.17±0.006×10^4 M^-1 s^-1 and the k off (Aβ(2-8)) was 1.54±0.006×10^−3 s^-1. For the same substance, the k on (Aβ(2-8)) was 4.85±0.01×10^4 M^-1 s^-1, the k on (Aβ(1-8); Aβ peptide coupled via C-terminal cysteine to CM5 chip, 20 µl/min) was 3.5±0.02×10^4 M^-1 s^-1 and the k off (Aβ(1-8); CM5 chip) was 1.8±0.02×10^−3 s^-1. For the same substance, the “interaction with Aβ(8-15)” value (Aβ(8-15)) was “No interaction”, the Kd (Aβ(pE3-8); n.d. = no detectable binding (footnote)) was 1500 nM and the k off (Aβ(pE3-8); ± standard error, SEM) was 63±0.05×10^−3 s^-1. The k on (Aβ(pE3-8); ± standard error, SEM) was 4.21±0.008×10^4 M^-1 s^-1.
